Measured values taken from patent US8901118B2, “Compounds and methods for kinase modulation, and indications therefor” (Plexxikon Inc., priority 2010, dated 2014).

Key:
BCR-NTRK3 BaF3 cells = biological target: T1, BCR-NTRK3 BaF3 cells (Homo sapiens, UniProt Q16288); assay: BaF3 BCR-NTRK3 cell proliferation assay (ATPlite); format: cell-based; details: read-out: Inhibition of Cell Proliferation IC50, BCR/BaF3 TrkC
T1 construct: fused on or other part: P11274 (Breakpoint cluster region protein)
Method in brief: (§1)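 ATP-based luminescence (ATPlite), read after 10 min at room temperature, served as a proxy for cell number, and IC50 was fitted against compound concentration. Before that, cells were treated for 3 days with an 8-point 1:3 dilution series starting at 10 μM. BaF3 cells were plated at 10,000/well without IL-3, and MV-4-11 cells at 25,000/well.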

CYP2C9 = CYP2C9 (Homo sapiens, UniProt P11712); assay: CYP2C9 inhibition (fluorescent substrate MFC); format: in vitro ADME; details: read-out: Cyp IC50 2C9
Method in brief: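 Test compounds, 10-point 1:1 serial dilutions in NADPH-regenerating cofactor mix, were preincubated 10 min at 37° C before recombinant enzyme and fluorogenic substrate reactions at 37° C (CYP1A2 15 min; CYP2C9 45 min; CYP2C19, 2D6 30 min). Product fluorescence was read at 409 ex with 460 em (1A2, 2C19) or 530 em (2C9, 2D6), and IC50 fitted from signal versus concentration.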

BCR-FMS BaF3 cells = biological target: T2, BCR-FMS BaF3 cells (Homo sapiens, UniProt P07333); assay: BaF3 BCR-FMS cell proliferation assay (ATPlite); format: cell-based; details: read-out: Inhibition of Cell Proliferation IC50, BCR/BaF3 Fms
T2 construct: fused on or other part: P11274 (Breakpoint cluster region protein)
T2 sequence (P07333 582-910): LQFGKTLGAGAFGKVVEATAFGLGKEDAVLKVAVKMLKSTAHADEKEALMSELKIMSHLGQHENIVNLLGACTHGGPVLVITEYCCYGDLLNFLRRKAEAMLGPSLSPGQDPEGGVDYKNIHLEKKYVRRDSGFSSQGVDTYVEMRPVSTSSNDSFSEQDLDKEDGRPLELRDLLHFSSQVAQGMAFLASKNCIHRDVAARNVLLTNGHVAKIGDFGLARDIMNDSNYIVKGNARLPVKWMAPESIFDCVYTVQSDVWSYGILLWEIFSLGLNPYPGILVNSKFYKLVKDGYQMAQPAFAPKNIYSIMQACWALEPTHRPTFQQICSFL
Method in brief: as §1

Chain of CYP2C9 (P11712 whole entry): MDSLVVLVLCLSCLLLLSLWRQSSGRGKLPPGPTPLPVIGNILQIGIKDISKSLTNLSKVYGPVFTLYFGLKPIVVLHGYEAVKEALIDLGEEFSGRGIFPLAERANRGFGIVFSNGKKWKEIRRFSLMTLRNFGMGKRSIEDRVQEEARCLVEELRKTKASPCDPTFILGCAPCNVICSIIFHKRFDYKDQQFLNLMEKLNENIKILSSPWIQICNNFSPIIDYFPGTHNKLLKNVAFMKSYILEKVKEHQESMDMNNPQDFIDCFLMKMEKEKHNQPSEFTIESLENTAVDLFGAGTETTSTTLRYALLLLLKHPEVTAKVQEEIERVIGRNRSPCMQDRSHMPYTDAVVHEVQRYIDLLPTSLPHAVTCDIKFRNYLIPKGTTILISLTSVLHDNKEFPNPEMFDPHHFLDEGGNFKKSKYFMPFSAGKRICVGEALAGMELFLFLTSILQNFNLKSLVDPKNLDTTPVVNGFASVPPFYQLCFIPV
T1 sequence (Q16288 whole entry, the tested form may be a part): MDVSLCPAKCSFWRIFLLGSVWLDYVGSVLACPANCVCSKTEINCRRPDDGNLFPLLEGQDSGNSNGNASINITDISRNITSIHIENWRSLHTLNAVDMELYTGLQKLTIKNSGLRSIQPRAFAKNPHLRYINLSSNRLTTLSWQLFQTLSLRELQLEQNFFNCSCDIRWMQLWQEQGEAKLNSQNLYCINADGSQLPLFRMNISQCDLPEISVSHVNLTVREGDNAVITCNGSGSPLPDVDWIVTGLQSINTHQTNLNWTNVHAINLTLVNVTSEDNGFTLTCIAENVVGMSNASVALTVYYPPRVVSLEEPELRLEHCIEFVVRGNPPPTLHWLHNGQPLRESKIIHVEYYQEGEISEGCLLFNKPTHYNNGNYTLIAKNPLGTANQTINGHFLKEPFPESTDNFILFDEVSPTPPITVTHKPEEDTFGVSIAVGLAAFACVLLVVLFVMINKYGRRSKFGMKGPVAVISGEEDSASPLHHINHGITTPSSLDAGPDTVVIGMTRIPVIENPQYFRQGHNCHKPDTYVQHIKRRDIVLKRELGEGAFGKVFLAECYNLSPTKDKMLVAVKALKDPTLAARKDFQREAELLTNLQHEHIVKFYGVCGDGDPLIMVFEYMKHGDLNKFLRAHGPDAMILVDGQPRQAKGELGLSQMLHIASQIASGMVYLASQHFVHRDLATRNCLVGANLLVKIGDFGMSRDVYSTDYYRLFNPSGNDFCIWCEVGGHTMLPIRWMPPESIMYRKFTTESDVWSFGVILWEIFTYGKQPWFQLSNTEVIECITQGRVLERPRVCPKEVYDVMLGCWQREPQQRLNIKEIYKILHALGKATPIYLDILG

IC50 (BCR-NTRK3 BaF3 cells) [nM] | IC50 (CYP2C9) [nM] | IC50 (BCR-FMS BaF3 cells) [nM] | Structure (SMILES)
< 10 | < 5000 | < 10 | CCc1ccc(Nc2ccc(C(=O)c3c[nH]c4ncnc(NC)c34)c(F)n2)cn1 [Compound P-4124, [6-[(6-ethyl-3-pyridyl)amino]-2-fluoro-3-pyridyl]-[4-(methylamino)-7H-pyrrolo[2,3-d]pyrimidin-5-yl]methanone]
< 10 | > 10000 | < 10 | CCC(CC)Nc1ncnc2[nH]cc(C(=O)c3ccc(Nc4ccc(OC)nc4)nc3F)c12 [Compound P-4077, [4-(1-ethylpropylamino)-7H-pyrrolo[2,3-d]pyrimidin-5-yl]-[2-fluoro-6-[(6-methoxy-3-pyridyl)amino]-3-pyridyl]methanone]
< 10 | > 10000 | < 10 | CCNc1ncnc2[nH]cc(C(=O)c3ccc(Nc4ccc(CC)nc4)nc3F)c12 [Compound P-4123, [4-(ethylamino)-7H-pyrrolo[2,3-d]pyrimidin-5-yl]-[6-[(6-ethyl-3-pyridyl)amino]-2-fluoro-3-pyridyl]methanone]
< 10 | > 10000 | < 100 | COc1ccc(Nc2ccc(C(=O)c3c[nH]c4ncnc(NCc5ccc(C(F)(F)F)nc5)c34)c(F)n2)cn1 [Compound P-4071, [2-fluoro-6-[(6-methoxy-3-pyridyl)amino]-3-pyridyl]-[4-[[6-(trifluoromethyl)-3-pyridyl]methylamino]-7H-pyrrolo[2,3-d]pyrimidin-5-yl]methanone]
< 10 | > 10000 | < 10 | COc1ccc(Nc2ccc(C(=O)c3c[nH]c4ncnc(NCC5CC5)c34)c(F)n2)cn1 [Compound P-4067, [4-(cyclopropylmethylamino)-7H-pyrrolo[2,3-d]pyrimidin-5-yl]-[2-fluoro-6-[(6-methoxy-3-pyridyl)amino]-3-pyridyl]methanone]
< 100 | 5000 to 10000 | < 100 | O=C(c1ccc(NC2CCC(F)(F)CC2)nc1Cl)c1c[nH]c2ncnc(NC3CC3)c12 [Compound P-4059, [2-chloro-6-[(4,4-difluorocyclohexyl)amino]-3-pyridyl]-[4-(cyclopropylamino)-7H-pyrrolo[2,3-d]pyrimidin-5-yl]methanone]
